Source: patent publication US6294562A, “Salts of ethyl 3-(2-(4-(4-amino-imino-methyl)phenyl)-4-methyl-2,5-dioxo-imidazolidin-1-yl )acetylamino)-3-phenylpropionate” (Hoechst Aktiengesellschaft, priority 1996, dated 2001)

Assays:
[1] = tested on: collagen induced ex vivo platelet aggregation; experiment: Ex vivo platelet aggregation inhibition in dogs, collagen induced; design: species or system dog; settings: collagen plus epinephrine
Experimental: Dogs of either sex (mixed breed of Labrador/Harrier, body weight 21-28 kg) were fasted overnight. The test compounds were administered orally in gelatine capsules or intravenously. Before administration of the test compounds and several times during 24 hours thereafter, 20 ml of blood were withdrawn from the cephalic vein into acid citrate dextrose (9+1volumes). Platelet rich plasma (PRP) was obtained by centrifugation. Platelet aggregation was measured in PRP after addition of either ADP (3-30 μmol/l) or collagen (0.3-10 μg/ml) plus epinephrine (10 μM) at 37° C. in an aggregometer (BioData). Percent of maximal aggregation before and after drug administration was compared. The percent inhibition of aggregation at the lowest concentration of the agonist which induced irreversible maximal aggregation is given. In addition, the cutaneous bleeding time was measured at the shaved inner forearm using the Simplate® 1 device at the times of blood collection. Percent prolongation of bleeding time after drug administration as compared to the predrug value is calculated.
When ethyl (S)-3-(2-( (S)-4-(4-(amino-imino-methyl) phenyl)-4-methyl-2,5-dioxoimidazolidin-1-yl)acetylamino)-3-phenylpropionate hydrogen maleate was examined the following results were obtained. Given is the percent inhibition of platelet aggregation 1 h, 4 h, 8 h and 24 h after administration of the test substance. The dose is given in mg per kg body weight. n is the number of dogs tested.

[2] = Determination of water vapor sorption (automatic two-limbed microbalance, 25° C.); format: physicochemical
Experimental: The water uptake of a substance was determined using an automatic two-limbed microbalance which is operated in vacuo or in an atmosphere which has a defined composition or a defined pressure. The dry sample is located on one side of the balance and a taring weight is located on the other side. A water vapor atmosphere, whose pressure was increased stepwise, was generated in the weighing space. The increase in weight of the sample as a function of the water vapor pressure was recorded. The measurement was carried out at a constant temperature of 25° C.
The weighing space was first of all evacuated to constant weight and the starting weight of the sample was determined. A defined quantity of water vapor was then passed into the evacuated weighing space through an inlet valve. In the experiment which is reproduced below, the water vapor pressure which was set in this first step corresponds, at the measuring temperature of 25° C., to a relative atmospheric humidity of 4.7%. When constant weight was once again reached after passing in the water vapor, i.e. when the sample was in equilibrium with the water vapor atmosphere, the increase in weight of the sample was recorded. After that, the water vapor pressure was increased in several steps by passing in further water vapor (with each water vapor pressure corresponding to a defined relative atmospheric humidity at the measuring temperature of 25° C.). In each step, the increase in weight of the sample was recorded after constant weight had been reached. When ethyl (S)-3-(2-((S)-4-(4-(amino-imino-methyl)phenyl)-4-methyl-2,5-dioxo-imidazolidin-1-yl)-acetylamino)-3-phenylpropionate hydrogen maleate was examined, the following weight increases, based on the starting weight of the sample, were observed.

[3] = tested on: coronary cyclic flow variations (recurrent formation of platelet rich thrombi); experiment: Coronary cyclic flow variations in dogs (model of unstable angina); format: in vivo, dog
Excerpt: (§1) Dogs of either sex (20-35 kg) were anesthetized (Ketamine plus sodium pentobarbital infusion), ventilated and instrumented for the measurement of hemodynamic parameters (peripheral and left ventricular blood pressure, myocardial contractility, heart rate), and ECG. Blood gases and hematocrit were kept constant by infusion of electrolytes. After a left thoracotomy, the heart was exposed and the left circumflex coronary artery (LCX) was instrumented with an electromagnetic flow probe to measure mean coronary blood flow. Distal to the flow probe, the LCX was shortly squeezed with forceps in order to damage the endothelium, and a small concentrically constricting plastic cylinder was placed onto the damaged site (between 1.0 and 1.7 mm inner diameter, depending on the size of the LCX, and 4 mm length). The constrictor abolished the reactive hyperemic response to a 10 second occlusion of the LCX and initiated the appearance of flow cycles (approx. 10 per hour) resulting from recurrent formation of platelet rich thrombi at the stenosed site. After 60 min of regular cyclic flow variations, the test compounds were administered by intravenous or intraduodenal bolus application. Cyclic flow variations were further monitored for at least 2 to 5 hours. Percent inhibition of coronary thrombotic cyclic flow variations was calculated by comparison of the mean number of cyclic flow variations per hour before and after administration of the compound in 5 to 8 animals. In control animals, the number of cyclic flow variations per hour remained constant for several hours. (References: Folts, J. D. et al. (1976), Circulation 54: 365-370; Just, M. et al. (1989), J. Cardiovasc. Pharmacol. 14 (suppl. 11): S 129-136)
When ethyl (S)-3-(2-((S)-4-(4-(amino-imino-methyl)phenyl)-4methyl-2,5-dioxoimidazolidin-1-yl)acetylamino)-3-phenylpropionate hydrogen maleate was examined the following results were obtained. Given is the percent reduction of the number of stenosis induced coronary cyclic flow variations (CFV's) per hour in the first, the second and the third hour after administration of the test compound as compared to the predrug period. The dose is given in mg per kg of body weight.

[4] = Hemodynamic parameters in the coronary cyclic flow variation model in dogs; format: in vivo, dog; settings: all hemodynamic parameters, intravenous or intraduodenal
Excerpt: as §1, with “After 60 min of regular cyclic flow variations, the test compounds were administered by intravenous or intraduodenal bolus application.” left out, “In control animals, the number of cyclic flow variations per hour remained constant for several hours. (References: Folts, J. D. et al. (1976), Circulation 54: 365-370; Just, M. et al. (1989), J. Cardiovasc. Pharmacol. 14 (suppl. 11): S 129-136)” left out

With `CCOC(=O)C[C@H](NC(=O)CN1C(=O)N[C@@](C)(c2ccc(C(=N)N)cc2)C1=O)c1ccccc1.O=C(O)/C=C\C(=O)O` [Ethyl (S)-3-(2-((S)-4-(4-(amino-imino-methyl)phenyl)-4-methyl-2,5-dioxo-imidazolidin-1-yl)acetylamino)-3-phenylpropionate hydrogen maleate] the Inhibition of aggregation ([1]; 0.5 mg/kg intravenously, n=6, after 1 h) was 27%, the Inhibition of aggregation ([1]; 0.5 mg/kg intravenously, n=6, after 4 h) was 26% and the Inhibition of aggregation ([1]; 0.5 mg/kg intravenously, n=6, after 8 h) was 18%. The Inhibition of aggregation ([1]; 0.5 mg/kg intravenously, n=6, after 24 h) was 0%, the Inhibition of aggregation ([1]; 0.5 mg/kg orally, n=6, after 1 h) was 8% and the Inhibition of aggregation ([1]; 0.5 mg/kg orally, n=6, after 4 h) was 19%. It also gave an Inhibition of aggregation ([1]; 0.5 mg/kg orally, n=6, after 8 h) of 5%, an Inhibition of aggregation ([1]; 0.5 mg/kg orally, n=6, after 24 h) of 0% and an Inhibition of aggregation ([1]; 1 mg/kg orally, n=6, after 1 h) of 36%. It also gave an Inhibition of aggregation ([1]; 1 mg/kg orally, n=6, after 4 h) of 67%, an Inhibition of aggregation ([1]; 1 mg/kg orally, n=6, after 8 h) of 50% and an Inhibition of aggregation ([1]; 1 mg/kg orally, n=6, after 24 h) of 11%. The Inhibition of aggregation ([1]; 2 mg/kg orally, n=8, after 1 h) was 28%, the Inhibition of aggregation ([1]; 2 mg/kg orally, n=8, after 4 h) was 65% and the Inhibition of aggregation ([1]; 2 mg/kg orally, n=8, after 8 h) was 60%. The Inhibition of aggregation ([1]; 2 mg/kg orally, n=8, after 24 h) was 20%, the hygroscopicity ([2]; 25° C.) was “not hygroscopic” and the increase in weight ([2]; relative atmospheric humidity of approx. 80%) was “approx. 0.5%”. The “Increase in weight of the sample” value ([2]; relative humidity 4.7%, 25° C.) was 0.06%, the “Increase in weight of the sample” value ([2]; relative humidity 18.5%, 25° C.) was 0.11% and the “Increase in weight of the sample” value ([2]; relative humidity 32.8%, 25° C.) was 0.16%. For the same compound, the “Increase in weight of the sample” value ([2]; relative humidity 49.6%, 25° C.) was 0.23%, the “Increase in weight of the sample” value ([2]; relative humidity 64.7%, 25° C.) was 0.33% and the “Increase in weight of the sample” value ([2]; relative humidity 75.5%, 25° C.) was 0.43%. For the same compound, the “Increase in weight of the sample” value ([2]; relative humidity 82.1%, 25° C.) was 0.54%, the “Reduction of CFV's” value ([3]; 0.1 mg/kg intraduodenally, first hour) was 39% and the “Reduction of CFV's” value ([3]; 0.1 mg/kg intraduodenally, second hour) was 62%. For the same compound, the “Reduction of CFV's” value ([3]; 0.1 mg/kg intraduodenally, third hour) was 74%, the “Reduction of CFV's” value ([3]; 0.1 mg/kg intravenously, first hour) was 52% and the “Reduction of CFV's” value ([3]; 0.1 mg/kg intravenously, second hour) was 81%. The “Reduction of CFV's” value ([3]; 0.1 mg/kg intravenously, third hour) was 89%, the “Reduction of CFV's” value ([3]; 0.2 mg/kg intravenously, first hour) was 75% and the “Reduction of CFV's” value ([3]; 0.2 mg/kg intravenously, second hour) was 96%. For the same compound, the “Reduction of CFV's” value ([3]; 0.2 mg/kg intravenously, third hour) was 99%, the “Reduction of CFV's” value ([3]; 0.3 mg/kg intraduodenally, first hour) was 23% and the “Reduction of CFV's” value ([3]; 0.3 mg/kg intraduodenally, second hour) was 66%. For the same compound, the “Reduction of CFV's” value ([3]; 0.3 mg/kg intraduodenally, third hour) was 78%, the antithrombotic activity ([3]; dog, in vivo) was “powerful antithrombotic activity” and the “hemodynamic parameters recorded during the test” value [4] was “not significantly changed”.
